Patent publication US9622997B2, “Methods for treating insomnia” (Lynn Health Science Institute, Inc., priority 2012, dated 2017)

How the values were obtained:
[1] = test system: healthy subjects subjected to a transient insomnia protocol; experiment: Next day residual effects (DSST, SCT, VAS) and adverse events after PSG night; format: in vivo, human
Method: Next day residual effects were assessed by a comparing pre- and post-PSG Digit Symbol Substitution Test (DSST; 90-s duration) and Symbol Copying Test (SCT; 90-s duration). Hangover effect of baclofen 20 mg was assessed by comparing a Visual Analog Scale (VAS) for sleepiness administered the morning after each PSG. DSST and SCT were administered prior to study medication provided 90 minutes before Lights Out. DSST, SCT, and VAS were conducted 30 minutes after Lights On in the order given. Subjects were contacted between 24-48 hours after each PSG to assess any side-effects or adverse events.
The primary outcome variables were WASO, TST, and SE. Secondary outcome variables were SOL, sTST, sSOL, and sNAS. Exploratory variables to assess residual effects were cognitive and visual analog test scores (DSST, SCT, and VAS). Objective PSG measures such as the percent of time in each sleep stage, subjective self-reports, and residual effects were analyzed using SPSS 11.0 (SPSS Inc., Chicago, Ill., USA). Paired samples t-tests were used to compare means between treatment groups for normally distributed dependent measures. Wilcoxon signed-rank tests were used to compare the medians between treatment groups for non-normally distributed dependent measures. Sample size determination was made based on previous findings in our laboratory from a study of the effect of baclofen in patients with nighttime reflux.

[2] = test system: individuals with complaints of nighttime heartburn or regurgitation; experiment: Cross-over trial with esophageal pH monitoring combined with overnight PSG after reflux-provoking meal; format: in vivo, human
Text: Individuals aged 18-65 (inclusive) with complaints of nighttime heartburn or regurgitation at least twice per week and a Carlsson GERD score of at least 5 were invited to participate. […] Participants were also excluded if they took sedating medications on a regular basis (PRN use was allowed if they agreed to abstain from use on the nights in the sleep laboratory). Participants were recruited from a database of patients with heartburn complaints. These participants had previously expressed interest in participating in medical research studies at our facility. Advertising was not utilized in recruitment.
Esophageal pH monitoring was performed using an antimony pH catheter (Sandhill Scientific, Highlands Ranch, Colo., USA) placed in the distal esophagus. The catheter was inserted into the esophagus via the nares and positioned so that the pH electrode was 5 cm above the manometrically determined LES. Prior to insertion the pH electrode was calibrated against solutions of pH 4 and 7. The catheter was connected to an acid reflux monitor, which allowed continuous recordings of esophageal pH for a 24-hour period as well as simultaneous pH monitoring during PSG (ZepHr, Sandhill Scientific).
Data were analyzed using BioVIEW Analysis software (Sandhill Scientific). This software provides a report of upright, supine, and total acid contact time (ACT), which were used as outcome measures in the study.
Overnight polysomnography included monitoring of electroencephalography, electroocculography, submental electromyography, airflow (thermistor), electrocardiogram and SaO2. Distal and proximal pH was also recorded via the polysomnography system. […] “Lights Out” occurred at the patient's usual bedtime. Time in bed was standardized to 8 hours. For the purposes of this study, significant sleep apnea was defined as an apnea hypopnea index (AHI) of at least 10 events per hour of sleep. Individuals with an AHI of 10 or greater on the first sleep study were excluded from the study. Likewise, individuals with a periodic limb movement arousal index (PLMAI) of 10 or greater were excluded.
A reflux event was defined as a period of at least 30 consecutive seconds with pH readings below 4. A reflux event ended when the pH rose to 4 or greater for a period of at least 30 seconds. Reflux events were only counted if they occurred after PSG documented sleep onset had occurred. These analyses were done by hand in order to determine which events occurred during sleep and which occurred during wake. […]
The second and third visits were scheduled one to two weeks after the initial visit, and were separated by a washout period of approximately one week. […] The order of medication was determined by a computer-generated list of random sequences. […]

[3] = baclofen 20 mg vs placebo, next day residual effects, 30 minutes after Lights On

SMILES: NCC(CC(=O)O)c1ccc(Cl)cc1 (centres unmarked) [Baclofen, 4-amino-3-(4-chlorophenyl)-butanoic acid]
- residual sleepiness testing, Visual Analog Scale (VAS) ([1]; baclofen 20 mg vs placebo, morning after each PSG): no significant differences between treatment conditions
- cognitive testing, Digit Symbol Substitution Test (DSST) [1, 3]: no significant differences between treatment conditions
- cognitive testing, Symbol Copying Test (SCT) [1, 3]: no significant differences between treatment conditions
- serious adverse events ([1]; baclofen 20 mg, contacted 24-48 hours after each PSG): No serious adverse events were reported
- adverse events ([2]; baclofen 40 mg): No adverse events were documented
- reduction in number of distal reflux events occurring after PSG-determined sleep onset compared to placebo ([2]; baclofen 40 mg 90 minutes before bed, n=21, p<0.05): 56%
- reflux events associated with wakefulness and with sleep, compared to placebo ([2]; baclofen 40 mg, FIG. 1C): reduced reflux events
- decrease in recumbent ACT (acid contact time) versus placebo ([2]; baclofen 40 mg, not statistically significant): approximately 50%
